In patent publication EP0510620A1, “Indophenol substituted oligomaltosides as substrates for alpha-amylase” (BOEHRINGER MANNHEIM GMBH, priority 1991, dated 1992):
Marks after values point to notes of the source that are not given here.

Biological target: T1, Human-Pankreas-α-Amylase (HPA) (Homo sapiens, UniProt P04746)
T1 sequence (P04746 16-511): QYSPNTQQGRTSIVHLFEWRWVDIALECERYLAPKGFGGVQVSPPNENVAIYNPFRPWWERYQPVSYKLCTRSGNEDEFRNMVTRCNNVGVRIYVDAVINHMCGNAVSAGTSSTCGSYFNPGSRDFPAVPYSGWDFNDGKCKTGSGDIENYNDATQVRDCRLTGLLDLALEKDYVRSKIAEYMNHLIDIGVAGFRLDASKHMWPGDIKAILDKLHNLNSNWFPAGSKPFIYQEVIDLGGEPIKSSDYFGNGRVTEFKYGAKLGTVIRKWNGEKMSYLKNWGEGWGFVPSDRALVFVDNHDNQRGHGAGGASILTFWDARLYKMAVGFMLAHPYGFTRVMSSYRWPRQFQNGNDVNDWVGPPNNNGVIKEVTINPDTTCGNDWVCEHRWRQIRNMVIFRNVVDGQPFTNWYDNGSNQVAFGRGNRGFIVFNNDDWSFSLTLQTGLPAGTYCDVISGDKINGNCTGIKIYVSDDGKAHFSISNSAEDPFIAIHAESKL
Experiment: direct α-amylase determination with synthetic substrates, without auxiliary enzymes (absorbance change per minute)
Assay type: biochemical
Conditions: for 400 mMol/l KSCN HPA [ΔE/min]: activator 400 mMol/l KSCN, read at the wavelength given per substrate (645 or 578 nm); for 400 mmol/l KSCN HPA relativer Wert [ΔE/min]: relative value (Beispiel 1 = 1)
From the text: Es wurde mit den in der folgenden Tabelle und in Fig. 1 aufgeführten Substraten, die Amylaseaktivität von Human-Pankreas-α-Amylase (HPA) und Human-Speichel-α-Amylase (HSA) untersucht. Die folgenden Reagenzien wurden verwendet:
Substrat (wie in der Tabelle angegeben) 49,3 mMol/l
Reagenz 1 enthält gegebenenfalls noch Aktivator, wie in Tabelle angegeben, sowie - als Hemmstoffe für die Speichel-α-Amylase- von den Zellinien NCACC 84122003 (MAK I) und NCACC 84111301 (MAK II) produzierte Antikörper. Zur Durchführung der Bestimmung wird 1,00 ml Reagenz 1 mit 0,02 ml der Probe gemischt und auf 37°C temperiert. Anschließend wird 0,10 ml Reagenz 2 zugegeben, gemischt und nach 1,2 und 3 Minuten die Extinktion bei der jeweiligen Meßwellenlänge (s. Tabelle) abgelesen. Es wird der Mittelwert der Extinktionsdifferenz/Minute gebildet.
Die Endkonzentrationen im Testansatz betragen:
Als Probe wird Humanpankreas-Amylase (HPA) verwendet. Die Messung erfolgt bei 37°C bei der jeweils angegebenen Meßwellenlänge. Die Ergebnisse sind der Tabelle zu entnehmen. Tabelle
Verwendung der gemäß Beispiel 4 und Beispiel 5 hergestellten Substanzen als Substrate zur direkten α-Amylase-Bestimmung.
Es wird analog zu Beispiel 2 vorgegangen.

[1] = MES buffer pH 6,0, 37°C, substrate 4,44 mmol/l
[2] = measured at pH 8,0, 595 or 573 nm

Row | SMILES | 400 mMol/l KSCN HPA [ΔE/min] [1] | 400 mmol/l KSCN HPA relativer Wert [ΔE/min] [2] | also measured
1 | O=C1C(Cl)=CC(=Nc2ccc(O[C@H]3O[C@H](CO)[C@@H](O[C@H]4O[C@H](CO)[C@@H](O[C@H]5O[C@H](CO)[C@@H](O)[C@H](O)[C@H]5O)[C@H](O)[C@H]4O)[C@H](O)[C@H]3O)cc2)C=C1Cl [2,6-Dichlor-indophenylα-maltotriosid, reference compound] | 0 ΔE/min |  | 
2 | CC1=CC(=Nc2ccc(O[C@H]3O[C@H](CO)[C@@H](O[C@H]4O[C@H](CO)[C@@H](O[C@H]5O[C@H](CO)[C@@H](O)[C@H](O)[C@H]5O)[C@H](O)[C@H]4O)[C@H](O)[C@H]3O)cc2)C=C(C)C1=O [2,6-Dimethyl-indophenylα-maltotriosid, reference compound] |  |  | HPA [ΔE/min] (with 150 mmol/l NaN₃ instead of KSCN, MES buffer pH 6,0, 37°C, substrate 4,44 mmol/l, 578 nm): 0* ΔE/min
3 | O=C1C(Cl)=CC(=Nc2ccc(O[C@H]3O[C@H](CO)[C@@H](O[C@H]4O[C@H](CO)[C@@H](O[C@H]5O[C@H](CO)[C@@H](O)[C@H](O)[C@H]5O)[C@H](O)[C@H]4O)[C@H](O)[C@H]3O)c(Cl)c2)C=C1Cl [Beispiel 1, 2',2,6-Trichlor-indophenyl-α-maltotriosid] | 0,063 ΔE/min |  | Spaltung durch α-Amylase als direktes Substrat (in words, in the absence of auxiliary enzymes): hervorragend durch α-Amylase in Abwesenheit von Hilfsenzymen spaltbar; 400 mmol/l KSCN HPA relativer Wert [ΔE/min] (analogous to Beispiel 2 (pH 6,0, 37°C), 645 nm): 1 ΔE/min

The next lines start with results.

Row | 400 mMol/l KSCN HPA [ΔE/min] [1] | 400 mmol/l KSCN HPA relativer Wert [ΔE/min] [2] | SMILES | also measured
4 |  | 0,35* ΔE/min | CC1=CC(=Nc2ccc(O[C@H]3O[C@H](CO)[C@@H](O[C@H]4O[C@H](CO)[C@@H](O[C@H]5O[C@H](CO)[C@@H](O)[C@H](O)[C@H]5O)[C@H](O)[C@H]4O)[C@H](O)[C@H]3O)c(Cl)c2)C=CC1=O [Beispiel 4, 2'-Chlor-2-methyl-indophenyl-α-maltotriosid] | 
5 |  | 0,27* ΔE/min | CC1=CC(=Nc2ccc(O[C@H]3O[C@H](CO)[C@@H](O[C@H]4O[C@H](CO)[C@@H](O[C@H]5O[C@H](CO)[C@@H](O)[C@H](O)[C@H]5O)[C@H](O)[C@H]4O)[C@H](O)[C@H]3O)c(Cl)c2)C=C(C)C1=O [Beispiel 5, 2'-Chlor-2,6-dimethyl-indophenyl-α-maltotriosid] | 
